Experimental data published in PMC4342496 (The Journal of Biological Chemistry, 2015).
Read-outs that look alike come from different tables or passages of the source.

What was measured:
CjIMPDH [1] = molecular target: T1, CjIMPDH (Campylobacter jejuni, UniProt Q0P9J4); assay: steady-state kinetics, A340; format: biochemical; conditions: substrate inhibition by NAD+; pH 8.0, 25 °C
T1 construct: gene guaB; full-length wild type, N-terminal His6 tag, pMCSG7, E. coli; tetramer
T1 sequence (Q0P9J4 1-485): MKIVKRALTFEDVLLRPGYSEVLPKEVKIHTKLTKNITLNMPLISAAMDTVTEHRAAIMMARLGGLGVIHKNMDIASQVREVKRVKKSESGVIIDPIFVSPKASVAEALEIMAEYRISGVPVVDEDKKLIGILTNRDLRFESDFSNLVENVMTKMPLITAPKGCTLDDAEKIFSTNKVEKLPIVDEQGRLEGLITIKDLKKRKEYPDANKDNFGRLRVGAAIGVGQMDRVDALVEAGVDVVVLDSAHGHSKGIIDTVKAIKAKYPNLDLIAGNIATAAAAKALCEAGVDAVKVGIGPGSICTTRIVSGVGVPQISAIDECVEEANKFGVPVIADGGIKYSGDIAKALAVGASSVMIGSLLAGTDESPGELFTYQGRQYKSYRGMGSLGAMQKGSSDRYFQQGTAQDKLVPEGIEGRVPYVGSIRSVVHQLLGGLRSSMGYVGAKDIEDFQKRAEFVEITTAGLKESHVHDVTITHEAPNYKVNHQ
Excerpt: steady-state kinetics, A340 on CjIMPDH

BaIMPDH = molecular target: T2, BaIMPDH (Bacillus anthracis, UniProt A0A6L8P2U9); format: biochemical
T2 construct: gene guaB

CpIMPDH = molecular target: T3, CpIMPDH (Cryptosporidium parvum, UniProt Q8T6T2); assay: NADH production, A340; format: biochemical
T3 construct: gene 56k.02; recombinant
T3 sequence (Q8T6T2 1-400): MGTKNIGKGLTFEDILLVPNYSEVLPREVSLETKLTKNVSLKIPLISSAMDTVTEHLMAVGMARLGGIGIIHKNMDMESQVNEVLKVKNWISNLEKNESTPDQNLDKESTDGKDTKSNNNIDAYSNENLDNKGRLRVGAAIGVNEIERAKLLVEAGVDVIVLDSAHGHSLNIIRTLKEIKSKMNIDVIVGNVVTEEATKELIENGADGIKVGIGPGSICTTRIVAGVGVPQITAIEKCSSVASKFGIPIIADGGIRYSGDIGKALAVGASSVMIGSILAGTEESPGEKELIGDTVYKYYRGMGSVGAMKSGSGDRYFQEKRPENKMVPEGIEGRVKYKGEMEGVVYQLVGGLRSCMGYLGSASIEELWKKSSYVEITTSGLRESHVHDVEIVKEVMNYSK
Excerpt: NADH production, A340 on CpIMPDH

CjIMPDH [2] = molecular target: T1, CjIMPDH; assay: NADH production, A340; format: biochemical
Excerpt: NADH production, A340 on CjIMPDH

CjIMPDHΔS = molecular target: T4, CjIMPDHΔS (Campylobacter jejuni, UniProt Q0P9J4, INS91G/DEL92-195); assay: NADH production, A340; format: biochemical; conditions: pH 8.0, 1 mM IMP, NAD+ about 2.5 x Km, 10 min preincubation, room temperature
T4 construct: gene guaB
T4 sequence (Q0P9J4 1-485 INS91G/DEL92-195): T1 sequence (Q0P9J4 1-485)
Excerpt: NADH production, A340 on CjIMPDHΔS

VcIMPDH = molecular target: T5, VcIMPDH (Vibrio cholerae, UniProt Q9KTW3); assay: NADH production, A340; format: biochemical; conditions: read-out: IC50 / 1
T5 construct: gene guaB; full-length wild type, N-terminal His6 tag, recombinant E. coli; tetramer
T5 sequence (Q9KTW3 1-489): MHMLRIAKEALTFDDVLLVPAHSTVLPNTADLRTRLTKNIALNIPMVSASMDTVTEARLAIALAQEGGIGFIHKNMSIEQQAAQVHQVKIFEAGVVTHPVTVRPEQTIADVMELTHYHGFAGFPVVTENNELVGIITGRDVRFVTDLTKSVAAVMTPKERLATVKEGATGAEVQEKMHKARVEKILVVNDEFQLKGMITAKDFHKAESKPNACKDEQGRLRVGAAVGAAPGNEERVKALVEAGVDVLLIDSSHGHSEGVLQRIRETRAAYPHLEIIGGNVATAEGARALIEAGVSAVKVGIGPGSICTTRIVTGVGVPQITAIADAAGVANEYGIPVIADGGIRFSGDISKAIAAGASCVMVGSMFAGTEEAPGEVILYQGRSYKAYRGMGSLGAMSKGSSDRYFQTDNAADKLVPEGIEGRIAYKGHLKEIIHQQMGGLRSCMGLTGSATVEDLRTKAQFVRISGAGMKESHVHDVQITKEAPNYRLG
Excerpt: NADH production, A340 on VcIMPDH

[3] = test system: NC(=O)c1ccc[n+]([C@@H]2O[C@H](COP(=O)(O)OP(=O)(O)OC[C@H]3O[C@@H](n4cnc5c(N)ncnc54)[C@H](O)[C@@H]3O)[C@@H](O)[C@H]2O)c1; assay: purified protein; conditions: pH 8.0; 25.0 °C

T2 sequence (A0A6L8P2U9 1-487 limits assumed): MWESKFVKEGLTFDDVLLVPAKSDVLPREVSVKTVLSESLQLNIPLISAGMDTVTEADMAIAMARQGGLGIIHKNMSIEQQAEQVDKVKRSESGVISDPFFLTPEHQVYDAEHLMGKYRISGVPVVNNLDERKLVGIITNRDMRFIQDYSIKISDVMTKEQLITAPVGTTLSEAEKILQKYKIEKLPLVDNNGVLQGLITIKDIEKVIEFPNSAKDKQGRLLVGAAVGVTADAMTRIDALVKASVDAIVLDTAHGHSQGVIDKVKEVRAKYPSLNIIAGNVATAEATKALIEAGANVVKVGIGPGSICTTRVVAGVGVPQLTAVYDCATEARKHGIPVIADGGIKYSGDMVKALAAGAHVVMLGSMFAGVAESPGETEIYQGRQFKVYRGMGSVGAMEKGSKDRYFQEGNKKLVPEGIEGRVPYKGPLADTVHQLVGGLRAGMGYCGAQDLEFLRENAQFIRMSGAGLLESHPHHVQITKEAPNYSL

Compound: NC(=O)c1ccc[n+]([C@@H]2O[C@H](COP(=O)(O)OP(=O)(O)OC[C@H]3O[C@@H](n4cnc5c(N)ncnc54)[C@H](O)[C@@H]3O)[C@@H](O)[C@H]2O)c1 [NAD^+]
- NAD^+ Kii (CjIMPDH [1]): 20 ± 2 mM
- NAD^+ Kii (BaIMPDH): 3.9 ± 0.8 mM

Compound: C[C@@H](Oc1cc[n+]([O-])c2ccccc12)c1cn(-c2ccc(Cl)cc2)nn1 [compound 1, 4-[(1R)-[1-(4-chlorophenyl)-1H-1,2,3-triazol-4yl]ethoxy]quinoline-1-oxide]
- IC50 (CpIMPDH; read-out: IC50 / 1): 9 ± 2 nM
- IC50 (CjIMPDH [2]; read-out: IC50 / 1): 140 ± 30 nM
- IC50 (CjIMPDHΔS; read-out: IC50 / 1): 107 ± 8 nM

Compound: Cn1nc(CC(=O)Nc2ccc3oc4c(c3c2)CCCC4)c2ccccc2c1=O [compound 3, 3,4-dihydro-3-methyl-4-oxo-N-(6,7,8,9-tetrahydro2-dibenzofuranyl)-1-phthalazineacetamide]
- IC50 (VcIMPDH): > 5000 nM
- IC50 (CpIMPDH; read-out: IC50 / 3): 24 ± 6 nM
- IC50 (CjIMPDH [2]; read-out: IC50 / 3): 169 ± 20 nM
- IC50 (CjIMPDHΔS; read-out: IC50 / 3): 200 ± 20 nM

Compound: C=C(C)c1cccc(C(C)(C)NC(=O)Nc2ccc(Br)cc2)c1 [compound 4]
- IC50 (VcIMPDH): > 5000 nM
- IC50 (CpIMPDH; read-out: IC50 / 4): 11 ± 5 nM
- IC50 (CjIMPDH [2]; read-out: IC50 / 4): 36 ± 8 nM
- IC50 (CjIMPDHΔS; read-out: IC50 / 4): 67 ± 13 nM

Compound: C/C(=N\O)c1cccc(C(C)(C)NC(=O)Nc2ccc(Br)cc2)c1 [compound 6]
- IC50 (VcIMPDH): > 5000 nM
- IC50 (CpIMPDH; read-out: IC50 / 6): 8 ± 2 nM
- IC50 (CjIMPDH [2]; read-out: IC50 / 6): 29 ± 4 nM
- IC50 (CjIMPDHΔS; read-out: IC50 / 6): 46 ± 4 nM

Compound: C[C@H](Oc1cccc2ccccc12)C(=O)Nc1ccc2oc(-c3ccncc3)nc2c1 [compound 7, 2-(1-naphthalenyloxy)-N-[2-(4-pyridinyl)-5-benzoxazolyl)-(2S)-propanamide]
- IC50 (VcIMPDH): > 5000 nM
- IC50 (CjIMPDH [2]; read-out: IC50 / 7): 13 ± 2 nM
- IC50 (CjIMPDHΔS; read-out: IC50 / 7): 19 ± 2 nM

Compound: BaIMPDH (Bacillus anthracis)
- Km [3]: 550 ± 100 µM
